Experimental data reported in the supplement of paper PMC10307832.

Legend:
Assay in all cases: relative viability (nuclei count vs DMSO), 5 days (fraction); higher = more cells survive
Idelalisib + Crizotinib = compound: CC[C@H](Nc1ncnc2[nH]cnc12)c1nc2cccc(F)c2c(=O)n1-c1ccccc1 [Idelalisib] + C[C@@H](Oc1cc(-c2cnn(C3CCNCC3)c2)cnc1N)c1c(Cl)ccc(F)c1Cl [Crizotinib] (partner 1 µM)
Method in brief: (§1)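 The day after seeding in 1536-well plates, lung cancer cell lines were treated by pin tool with a single drug, or with a fixed anchor-drug dose together with five library-drug doses (not always all listed) in √10 steps. After 5 days, a combined fix-and-stain solution (final 0.05% Triton X-100, 1% formaldehyde, 1 ug/ml Hoechst) was added. Nuclei counted on 4× images gave relative viability as treated counts over vehicle counts, reported as the median of duplicate plates.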

Idelalisib + Vorinostat = compound: CC[C@H](Nc1ncnc2[nH]cnc12)c1nc2cccc(F)c2c(=O)n1-c1ccccc1 [Idelalisib] + O=C(CCCCCCC(=O)Nc1ccccc1)NO [Vorinostat] (partner 1 µM)
Method in brief: as §1

Pemetrexed + Palbociclib = compound: Nc1nc2[nH]cc(CCc3ccc(C(=O)N[C@@H](CCC(=O)O)C(=O)O)cc3)c2c(=O)[nH]1 [Pemetrexed] + CC(=O)c1c(C)c2cnc(Nc3ccc(N4CCNCC4)cn3)nc2n(C2CCCC2)c1=O [Palbociclib] (partner 0.5 µM)
Method in brief: as §1

Pemetrexed + Decitabine = compound: Nc1nc2[nH]cc(CCc3ccc(C(=O)N[C@@H](CCC(=O)O)C(=O)O)cc3)c2c(=O)[nH]1 [Pemetrexed] + Nc1ncn([C@H]2C[C@H](O)[C@@H](CO)O2)c(=O)n1 [Decitabine] (partner 2 µM)
Method in brief: as §1

## NCI-H650
Idelalisib + Crizotinib; first compound 0.04 µM
  relative viability: 0.947
Idelalisib + Crizotinib; first compound 0.1265 µM
  relative viability: 0.673
Idelalisib + Crizotinib; first compound 0.4 µM
  relative viability: 0.652
Idelalisib + Crizotinib; first compound 1.265 µM
  relative viability: 0.664
Idelalisib + Crizotinib; first compound 4 µM
  relative viability: 0.669
Idelalisib + Vorinostat; first compound 0.04 µM
  relative viability: 0.495
Idelalisib + Vorinostat; first compound 0.1265 µM
  relative viability: 0.449
Idelalisib + Vorinostat; first compound 0.4 µM
  relative viability: 0.369
Idelalisib + Vorinostat; first compound 1.265 µM
  relative viability: 0.419
Idelalisib + Vorinostat; first compound 4 µM
  relative viability: 0.421
Pemetrexed + Palbociclib; first compound 0.002 µM
  relative viability: 0.344
Pemetrexed + Palbociclib; first compound 0.006325 µM
  relative viability: 0.298
Pemetrexed + Palbociclib; first compound 0.06325 µM
  relative viability: 0.348
Pemetrexed + Palbociclib; first compound 0.2 µM
  relative viability: 0.313
Pemetrexed + Decitabine; first compound 0.002 µM
  relative viability: 0.287
Pemetrexed + Decitabine; first compound 0.006325 µM
  relative viability: 0.31
Pemetrexed + Decitabine; first compound 0.06325 µM
  relative viability: 0.293
Pemetrexed + Decitabine; first compound 0.2 µM
  relative viability: 0.313

## NCI-H661
Idelalisib + Crizotinib; first compound 0.04 µM
  relative viability: 1.04
Idelalisib + Crizotinib; first compound 0.4 µM
  relative viability: 1.08
Idelalisib + Crizotinib; first compound 1.265 µM
  relative viability: 1.14
Idelalisib + Crizotinib; first compound 4 µM
  relative viability: 0.943
Idelalisib + Vorinostat; first compound 0.04 µM
  relative viability: 0.81
Idelalisib + Vorinostat; first compound 0.1265 µM
  relative viability: 0.779
Idelalisib + Vorinostat; first compound 0.4 µM
  relative viability: 0.828
Idelalisib + Vorinostat; first compound 1.265 µM
  relative viability: 0.876
Idelalisib + Vorinostat; first compound 4 µM
  relative viability: 0.814
Pemetrexed + Palbociclib; first compound 0.002 µM
  relative viability: 0.501
Pemetrexed + Palbociclib; first compound 0.006325 µM
  relative viability: 0.419
Pemetrexed + Palbociclib; first compound 0.02 µM
  relative viability: 0.405
Pemetrexed + Palbociclib; first compound 0.06325 µM
  relative viability: 0.415
Pemetrexed + Palbociclib; first compound 0.2 µM
  relative viability: 0.386
Pemetrexed + Decitabine; first compound 0.002 µM
  relative viability: 0.586
Pemetrexed + Decitabine; first compound 0.006325 µM
  relative viability: 0.513
Pemetrexed + Decitabine; first compound 0.02 µM
  relative viability: 0.646
Pemetrexed + Decitabine; first compound 0.06325 µM
  relative viability: 0.608
Pemetrexed + Decitabine; first compound 0.2 µM
  relative viability: 0.559

## NCI-H727
Idelalisib + Crizotinib; first compound 0.04 µM
  relative viability: 0.81
Idelalisib + Crizotinib; first compound 0.1265 µM
  relative viability: 0.798
Idelalisib + Crizotinib; first compound 0.4 µM
  relative viability: 0.76
Idelalisib + Crizotinib; first compound 1.265 µM
  relative viability: 1
Idelalisib + Crizotinib; first compound 4 µM
  relative viability: 0.797
Idelalisib + Vorinostat; first compound 0.04 µM
  relative viability: 1.24
Idelalisib + Vorinostat; first compound 0.1265 µM
  relative viability: 1.17
Idelalisib + Vorinostat; first compound 0.4 µM
  relative viability: 1.12
Idelalisib + Vorinostat; first compound 1.265 µM
  relative viability: 1.25
Idelalisib + Vorinostat; first compound 4 µM
  relative viability: 1.05
Pemetrexed + Palbociclib; first compound 0.002 µM
  relative viability: 0.721
Pemetrexed + Palbociclib; first compound 0.006325 µM
  relative viability: 0.692
Pemetrexed + Palbociclib; first compound 0.02 µM
  relative viability: 0.638
Pemetrexed + Palbociclib; first compound 0.06325 µM
  relative viability: 0.633
Pemetrexed + Palbociclib; first compound 0.2 µM
  relative viability: 0.613
Pemetrexed + Decitabine; first compound 0.002 µM
  relative viability: 0.922
Pemetrexed + Decitabine; first compound 0.006325 µM
  relative viability: 0.796
Pemetrexed + Decitabine; first compound 0.02 µM
  relative viability: 0.835
Pemetrexed + Decitabine; first compound 0.06325 µM
  relative viability: 0.792
Pemetrexed + Decitabine; first compound 0.2 µM
  relative viability: 0.865

## NCI-H838
Idelalisib + Crizotinib; first compound 0.04 µM
  relative viability: 0.791
Idelalisib + Crizotinib; first compound 0.1265 µM
  relative viability: 0.906
Idelalisib + Crizotinib; first compound 0.4 µM
  relative viability: 0.724
Idelalisib + Crizotinib; first compound 1.265 µM
  relative viability: 0.8
Idelalisib + Crizotinib; first compound 4 µM
  relative viability: 0.695
Idelalisib + Vorinostat; first compound 0.04 µM
  relative viability: 0.752
Idelalisib + Vorinostat; first compound 0.1265 µM
  relative viability: 0.731
Idelalisib + Vorinostat; first compound 0.4 µM
  relative viability: 0.68
Idelalisib + Vorinostat; first compound 1.265 µM
  relative viability: 0.716
Idelalisib + Vorinostat; first compound 4 µM
  relative viability: 0.618
Pemetrexed + Palbociclib; first compound 0.002 µM
  relative viability: 0.219
Pemetrexed + Palbociclib; first compound 0.006325 µM
  relative viability: 0.223
Pemetrexed + Palbociclib; first compound 0.02 µM
  relative viability: 0.28
Pemetrexed + Palbociclib; first compound 0.06325 µM
  relative viability: 0.252
Pemetrexed + Palbociclib; first compound 0.2 µM
  relative viability: 0.173
Pemetrexed + Decitabine; first compound 0.002 µM
  relative viability: 0.475
Pemetrexed + Decitabine; first compound 0.006325 µM
  relative viability: 0.45
Pemetrexed + Decitabine; first compound 0.02 µM
  relative viability: 0.516
Pemetrexed + Decitabine; first compound 0.06325 µM
  relative viability: 0.365
Pemetrexed + Decitabine; first compound 0.2 µM
  relative viability: 0.274

## NCI-H1355
Idelalisib + Crizotinib; first compound 0.04 µM
  relative viability: 1.21
Idelalisib + Crizotinib; first compound 0.1265 µM
  relative viability: 1.13
Idelalisib + Crizotinib; first compound 0.4 µM
  relative viability: 0.977
Idelalisib + Crizotinib; first compound 1.265 µM
  relative viability: 0.988
Idelalisib + Crizotinib; first compound 4 µM
  relative viability: 0.902
Idelalisib + Vorinostat; first compound 0.04 µM
  relative viability: 0.628
Idelalisib + Vorinostat; first compound 0.1265 µM
  relative viability: 0.662
Idelalisib + Vorinostat; first compound 0.4 µM
  relative viability: 0.512
Idelalisib + Vorinostat; first compound 1.265 µM
  relative viability: 0.612
Idelalisib + Vorinostat; first compound 4 µM
  relative viability: 0.548
Pemetrexed + Palbociclib; first compound 0.002 µM
  relative viability: 0.372
Pemetrexed + Palbociclib; first compound 0.006325 µM
  relative viability: 0.391
Pemetrexed + Palbociclib; first compound 0.02 µM
  relative viability: 0.391
Pemetrexed + Palbociclib; first compound 0.06325 µM
  relative viability: 0.413
Pemetrexed + Palbociclib; first compound 0.2 µM
  relative viability: 0.402
Pemetrexed + Decitabine; first compound 0.002 µM
  relative viability: 0.33
Pemetrexed + Decitabine; first compound 0.006325 µM
  relative viability: 0.354
Pemetrexed + Decitabine; first compound 0.02 µM
  relative viability: 0.336
Pemetrexed + Decitabine; first compound 0.06325 µM
  relative viability: 0.332
Pemetrexed + Decitabine; first compound 0.2 µM
  relative viability: 0.355

## NCI-H1437
Idelalisib + Crizotinib; first compound 0.04 µM
  relative viability: 0.894
Idelalisib + Crizotinib; first compound 0.1265 µM
  relative viability: 0.992
Idelalisib + Crizotinib; first compound 0.4 µM
  relative viability: 0.851
Idelalisib + Crizotinib; first compound 1.265 µM
  relative viability: 0.968
Idelalisib + Crizotinib; first compound 4 µM
  relative viability: 1.12
Idelalisib + Vorinostat; first compound 0.04 µM
  relative viability: 0.902
Idelalisib + Vorinostat; first compound 0.1265 µM
  relative viability: 0.932
Idelalisib + Vorinostat; first compound 0.4 µM
  relative viability: 0.895
Idelalisib + Vorinostat; first compound 1.265 µM
  relative viability: 0.964
Idelalisib + Vorinostat; first compound 4 µM
  relative viability: 0.903
Pemetrexed + Palbociclib; first compound 0.002 µM
  relative viability: 0.214
Pemetrexed + Palbociclib; first compound 0.006325 µM
  relative viability: 0.307
Pemetrexed + Palbociclib; first compound 0.02 µM
  relative viability: 0.303
Pemetrexed + Palbociclib; first compound 0.06325 µM
  relative viability: 0.307
Pemetrexed + Palbociclib; first compound 0.2 µM
  relative viability: 0.329
Pemetrexed + Decitabine; first compound 0.002 µM
  relative viability: 0.528
Pemetrexed + Decitabine; first compound 0.006325 µM
  relative viability: 0.577
Pemetrexed + Decitabine; first compound 0.02 µM
  relative viability: 0.555
Pemetrexed + Decitabine; first compound 0.06325 µM
  relative viability: 0.443
Pemetrexed + Decitabine; first compound 0.2 µM
  relative viability: 0.359

## NCI-H1650
Idelalisib + Crizotinib; first compound 0.04 µM
  relative viability: 0.87
Idelalisib + Crizotinib; first compound 0.1265 µM
  relative viability: 0.892
Idelalisib + Crizotinib; first compound 0.4 µM
  relative viability: 0.975
Idelalisib + Crizotinib; first compound 1.265 µM
  relative viability: 0.985
Idelalisib + Crizotinib; first compound 4 µM
  relative viability: 0.952
Idelalisib + Vorinostat; first compound 0.04 µM
  relative viability: 0.513
Idelalisib + Vorinostat; first compound 0.1265 µM
  relative viability: 0.604
Idelalisib + Vorinostat; first compound 0.4 µM
  relative viability: 0.58
Idelalisib + Vorinostat; first compound 1.265 µM
  relative viability: 0.587
Idelalisib + Vorinostat; first compound 4 µM
  relative viability: 0.614
Pemetrexed + Palbociclib; first compound 0.002 µM
  relative viability: 0.284
Pemetrexed + Palbociclib; first compound 0.006325 µM
  relative viability: 0.299
Pemetrexed + Palbociclib; first compound 0.02 µM
  relative viability: 0.381
Pemetrexed + Palbociclib; first compound 0.06325 µM
  relative viability: 0.247
Pemetrexed + Palbociclib; first compound 0.2 µM
  relative viability: 0.245
Pemetrexed + Decitabine; first compound 0.002 µM
  relative viability: 0.426
Pemetrexed + Decitabine; first compound 0.006325 µM
  relative viability: 0.32
Pemetrexed + Decitabine; first compound 0.02 µM
  relative viability: 0.545
Pemetrexed + Decitabine; first compound 0.06325 µM
  relative viability: 0.249
Pemetrexed + Decitabine; first compound 0.2 µM
  relative viability: 0.317

## NCI-H1651
Idelalisib + Crizotinib; first compound 0.04 µM
  relative viability: 0.919
Idelalisib + Crizotinib; first compound 0.1265 µM
  relative viability: 0.861
Idelalisib + Crizotinib; first compound 0.4 µM
  relative viability: 0.846
Idelalisib + Crizotinib; first compound 1.265 µM
  relative viability: 0.864
Idelalisib + Crizotinib; first compound 4 µM
  relative viability: 0.876
Idelalisib + Vorinostat; first compound 0.04 µM
  relative viability: 0.577
Idelalisib + Vorinostat; first compound 0.1265 µM
  relative viability: 0.416
Idelalisib + Vorinostat; first compound 0.4 µM
  relative viability: 0.552
Idelalisib + Vorinostat; first compound 1.265 µM
  relative viability: 0.617
Idelalisib + Vorinostat; first compound 4 µM
  relative viability: 0.593
Pemetrexed + Palbociclib; first compound 0.002 µM
  relative viability: 0.548
Pemetrexed + Palbociclib; first compound 0.006325 µM
  relative viability: 0.477
Pemetrexed + Palbociclib; first compound 0.02 µM
  relative viability: 0.52
Pemetrexed + Palbociclib; first compound 0.06325 µM
  relative viability: 0.495
Pemetrexed + Palbociclib; first compound 0.2 µM
  relative viability: 0.529
Pemetrexed + Decitabine; first compound 0.002 µM
  relative viability: 0.525
Pemetrexed + Decitabine; first compound 0.006325 µM
  relative viability: 0.593
Pemetrexed + Decitabine; first compound 0.02 µM
  relative viability: 0.631
Pemetrexed + Decitabine; first compound 0.06325 µM
  relative viability: 0.404
Pemetrexed + Decitabine; first compound 0.2 µM
  relative viability: 0.653
